Common to all, as to test: relative viability (nuclei count vs DMSO), 5 days (fraction); higher = more cells survive
Compound in test [1]: CO[C@H]1C[C@@H]2CC[C@@H](C)[C@@](O)(O2)C(=O)C(=O)N2CCCC[C@H]2C(=O)O[C@H]([C@H](C)C[C@@H]2CC[C@@H](OCCO)[C@H](OC)C2)CC(=O)[C@H](C)/C=C(\C)[C@@H](O)[C@@H](OC)C(=O)[C@H](C)C[C@H](C)/C=C/C=C/C=C/1C [Everolimus] + CS(=O)(=O)N1CCN(Cc2cc3nc(-c4cccc5[nH]ncc45)nc(N4CCOCC4)c3s2)CC1 [Pictilisib] (partner 1 µM)
The method, boiled down:
(§1)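 Each reported value is a median over duplicate plates. It expresses relative viability: treated-well nuclei count divided by vehicle-well nuclei count. Lung cancer cell lines in 1536-well plates were dosed by pin tool a day after seeding, alone with one drug or with a fixed anchor-drug dose plus five library-drug doses (not always all listed) in √10 steps, and nuclei were counted after 5 days.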

Compound in test [2]: CO[C@H]1C[C@@H]2CC[C@@H](C)[C@@](O)(O2)C(=O)C(=O)N2CCCC[C@H]2C(=O)O[C@H]([C@H](C)C[C@@H]2CC[C@@H](OCCO)[C@H](OC)C2)CC(=O)[C@H](C)/C=C(\C)[C@@H](O)[C@@H](OC)C(=O)[C@H](C)C[C@H](C)/C=C/C=C/C=C/1C [Everolimus] + CC(=O)c1c(C)c2cnc(Nc3ccc(N4CCNCC4)cn3)nc2n(C2CCCC2)c1=O [Palbociclib] (partner 0.5 µM)
In a few lines:
as §1

Compound in test [3]: CO[C@H]1C[C@@H]2CC[C@@H](C)[C@@](O)(O2)C(=O)C(=O)N2CCCC[C@H]2C(=O)O[C@H]([C@H](C)C[C@@H]2CC[C@@H](OCCO)[C@H](OC)C2)CC(=O)[C@H](C)/C=C(\C)[C@@H](O)[C@@H](OC)C(=O)[C@H](C)C[C@H](C)/C=C/C=C/C=C/1C [Everolimus] + N=C(N)NC(=N)NCCc1ccccc1 [Phenformin] (partner 250 µM)
The method, boiled down: as §1

Compound in test [4]: CO[C@H]1C[C@@H]2CC[C@@H](C)[C@@](O)(O2)C(=O)C(=O)N2CCCC[C@H]2C(=O)O[C@H]([C@H](C)C[C@@H]2CC[C@@H](OCCO)[C@H](OC)C2)CC(=O)[C@H](C)/C=C(\C)[C@@H](O)[C@@H](OC)C(=O)[C@H](C)C[C@H](C)/C=C/C=C/C=C/1C [Everolimus] + Nc1ncn([C@H]2C[C@H](O)[C@@H](CO)O2)c(=O)n1 [Decitabine] (partner 2 µM)
The method, boiled down: as §1

Drawing on the supplement of paper PMC10307832, this text covers relative viability for 9 cell lines.

Consider NCI-H1703, for which the relative viability in test [1] (first compound 0.01 µM) stood at 0.208; in test [1] (first compound 0.03162 µM) it was 0.24; in test [1] (first compound 0.1 µM), 0.306; in test [1] (first compound 0.3162 µM), 0.228; in test [1] (first compound 1 µM) it was 0.25.
Take NCI-H1755: the relative viability was determined as 0.407 in test [2] (first compound 0.01 µM); 0.395 in test [2] (first compound 0.03162 µM); 0.378 in test [2] (first compound 0.1 µM); 0.361 in test [2] (first compound 0.3162 µM); 0.356 in test [2] (first compound 1 µM); 0.334 in test [1] (first compound 0.01 µM). Besides, the relative viability came out at 0.381 in test [1] (first compound 0.03162 µM); 0.292 in test [1] (first compound 0.1 µM); 0.354 in test [1] (first compound 0.3162 µM); 0.329 in test [1] (first compound 1 µM); 0.583 in test [3] (first compound 0.01 µM); 0.639 in test [3] (first compound 0.03162 µM). The relative viability stood at 0.476 in test [3] (first compound 0.1 µM); 0.547 in test [3] (first compound 0.3162 µM); 0.487 in test [3] (first compound 1 µM); 0.582 in test [4] (first compound 0.01 µM); 0.56 in test [4] (first compound 0.03162 µM); 0.489 in test [4] (first compound 0.1 µM). In addition, the relative viability in test [4] (first compound 0.3162 µM) was 0.52; in test [4] (first compound 1 µM), 0.534.
NCI-H2087: the relative viability in test [2] (first compound 0.01 µM) turned out to be 0.235; in test [2] (first compound 0.03162 µM), 0.195; in test [2] (first compound 0.1 µM), 0.163; in test [2] (first compound 0.3162 µM), 0.217; in test [2] (first compound 1 µM), 0.245; in test [1] (first compound 0.01 µM), 0.502. Besides, the relative viability in test [1] (first compound 0.03162 µM) is 0.595; in test [1] (first compound 0.1 µM) it was 0.48; in test [1] (first compound 0.3162 µM), 0.722; in test [1] (first compound 1 µM), 0.591; in test [3] (first compound 0.01 µM) it was 0.41; in test [3] (first compound 0.03162 µM), 0.317. The relative viability in test [3] (first compound 0.1 µM) was determined as 0.423; in test [3] (first compound 0.3162 µM), 0.351; in test [3] (first compound 1 µM), 0.41; in test [4] (first compound 0.01 µM), 0.229; in test [4] (first compound 0.03162 µM) it was 0.205; in test [4] (first compound 0.1 µM), 0.2. The relative viability in test [4] (first compound 0.3162 µM) was found to be 0.198; in test [4] (first compound 1 µM), 0.257.
With NCI-H2228, the relative viability in test [2] (first compound 0.01 µM) amounted to 0.597; in test [2] (first compound 0.03162 µM), 0.403; in test [2] (first compound 0.1 µM) it was 0.337; in test [2] (first compound 0.3162 µM) it was 0.408; in test [2] (first compound 1 µM), 0.339; in test [1] (first compound 0.01 µM), 0.28. The relative viability in test [1] (first compound 0.03162 µM) is 0.206; in test [1] (first compound 0.1 µM), 0.209; in test [1] (first compound 0.3162 µM), 0.289; in test [1] (first compound 1 µM), 0.243; in test [3] (first compound 0.01 µM) it was 0.214; in test [3] (first compound 0.03162 µM), 0.194. In addition, the relative viability in test [3] (first compound 0.1 µM) came to 0.172; in test [3] (first compound 0.3162 µM) it was 0.291; in test [3] (first compound 1 µM), 0.187.
Regarding NCI-H727, the relative viability in test [2] (first compound 0.01 µM) worked out at 0.642; in test [2] (first compound 0.03162 µM) it was 0.529; in test [2] (first compound 0.1 µM) it was 0.725; in test [2] (first compound 0.3162 µM), 0.613; in test [2] (first compound 1 µM), 0.643; in test [1] (first compound 0.01 µM), 0.268. The relative viability turned out to be 0.274 in test [1] (first compound 0.03162 µM); 0.309 in test [1] (first compound 0.1 µM); 0.239 in test [1] (first compound 0.3162 µM); 0.275 in test [1] (first compound 1 µM); 0.462 in test [3] (first compound 0.01 µM); 0.457 in test [3] (first compound 0.03162 µM). Further, the relative viability in test [3] (first compound 0.3162 µM) stood at 0.485; in test [3] (first compound 1 µM), 0.368; in test [4] (first compound 0.01 µM), 0.73; in test [4] (first compound 0.03162 µM), 0.594; in test [4] (first compound 0.1 µM) it was 0.591; in test [4] (first compound 0.3162 µM), 0.642. In addition, the relative viability in test [4] (first compound 1 µM) was 0.617.
Take NCI-H650: the relative viability was 0.368 in test [2] (first compound 0.01 µM); 0.262 in test [2] (first compound 0.03162 µM); 0.279 in test [2] (first compound 0.1 µM); 0.278 in test [2] (first compound 0.3162 µM); 0.248 in test [2] (first compound 1 µM); 0.688 in test [1] (first compound 0.01 µM). The relative viability in test [1] (first compound 0.1 µM) was found to be 0.498; in test [1] (first compound 0.3162 µM), 0.569; in test [1] (first compound 1 µM), 0.505; in test [3] (first compound 0.01 µM), 0.423; in test [3] (first compound 0.1 µM), 0.431; in test [3] (first compound 0.3162 µM), 0.364. Besides, the relative viability in test [3] (first compound 1 µM) was found to be 0.294; in test [4] (first compound 0.01 µM) it was 0.316; in test [4] (first compound 0.03162 µM), 0.287; in test [4] (first compound 0.1 µM) it was 0.335; in test [4] (first compound 0.3162 µM), 0.281; in test [4] (first compound 1 µM), 0.318.
For NCI-H520, the relative viability in test [2] (first compound 0.01 µM) stood at 0.155; in test [2] (first compound 0.03162 µM) it was 0.182; in test [2] (first compound 0.1 µM) it was 0.194; in test [2] (first compound 0.3162 µM), 0.14; in test [2] (first compound 1 µM), 0.194; in test [1] (first compound 0.01 µM), 0.186. Moreover, the relative viability is 0.197 in test [1] (first compound 0.03162 µM); 0.204 in test [1] (first compound 0.1 µM); 0.185 in test [1] (first compound 0.3162 µM); 0.165 in test [1] (first compound 1 µM); 0.242 in test [3] (first compound 0.01 µM); 0.255 in test [3] (first compound 0.03162 µM). Also, the relative viability in test [3] (first compound 0.1 µM) was 0.242; in test [3] (first compound 0.3162 µM) it was 0.207; in test [3] (first compound 1 µM), 0.244; in test [4] (first compound 0.01 µM), 0.273; in test [4] (first compound 0.03162 µM) it was 0.281; in test [4] (first compound 0.1 µM), 0.26. Further, the relative viability came out at 0.287 in test [4] (first compound 0.3162 µM) and 0.294 in test [4] (first compound 1 µM).
In the case of EBC-1, the relative viability in test [1] (first compound 0.01 µM) stood at 0.199; in test [1] (first compound 0.03162 µM), 0.193; in test [1] (first compound 0.1 µM), 0.221; in test [1] (first compound 0.3162 µM), 0.227; in test [1] (first compound 1 µM), 0.222.
With NCI-H661, the relative viability in test [2] (first compound 0.01 µM) is 0.334; in test [2] (first compound 0.03162 µM), 0.321; in test [2] (first compound 0.1 µM), 0.328; in test [2] (first compound 0.3162 µM), 0.31; in test [2] (first compound 1 µM), 0.295; in test [1] (first compound 0.01 µM), 0.301. Also, the relative viability stood at 0.253 in test [1] (first compound 0.03162 µM); 0.235 in test [1] (first compound 0.1 µM); 0.305 in test [1] (first compound 0.3162 µM); 0.296 in test [1] (first compound 1 µM); 0.253 in test [3] (first compound 0.01 µM); 0.259 in test [3] (first compound 0.03162 µM). Moreover, the relative viability was 0.258 in test [3] (first compound 0.1 µM); 0.271 in test [3] (first compound 0.3162 µM); 0.281 in test [3] (first compound 1 µM); 0.429 in test [4] (first compound 0.01 µM); 0.429 in test [4] (first compound 0.03162 µM); 0.428 in test [4] (first compound 0.1 µM). Further, the relative viability was 0.435 in test [4] (first compound 0.3162 µM) and 0.397 in test [4] (first compound 1 µM).
